Data as given in publication PMC13541837, “High-yield production and functional analysis of novel rhizobial-type glutaminase-free L-asparaginase from Paenibacillus thiaminolyticus” (Folia Microbiologica, 2025).

How the values were obtained:
[1] = target: L-asparaginase from Paenibacillus thiaminolyticus (isoenzyme 1) (Paenibacillus thiaminolyticus); test: SEC; HiPrep 16/60 Sephacryl S-100 HR, flow rate 0.5 mL/min, 50 mM phosphate (K+) buffer pH 8.0; standards lysozyme (14 kDa), amylase (55 kDa), aldolase (160 kDa)
[2] = target: T1, ASN339Pt iso 1 (Paenibacillus thiaminolyticus, UniProt A0AAP9J308); test: ammonia release, Nessler's reagent, […] nm; modified substrate inhibition model (Eq. […], n = […]); assay type: biochemical; conditions: 100 mM Tris pH 9.0, 37 °C, 10 min (standard assay); L-asparagine 1.9-145 mmol L^-1; fit with substrate inhibition; read-out: Results (according to Eq. (2))
T1 construct: gene M5W83_23570; motifs RSSSKPVQAL and NCSGKHLGV; not isoenzyme 2 WP_087440700.1

[3] = target: T1, ASN339Pt iso 1; test: as above; assay type: biochemical; conditions: 100 mM Tris pH 9.0, 37 °C, 10 min (standard assay); L-asparagine 1.9-145 mmol L^-1; fit with substrate inhibition; substrate inhibition constant, two additional substrate molecules (n = 2), active sit

T1 sequence (A0AAP9J308 entry or part of it): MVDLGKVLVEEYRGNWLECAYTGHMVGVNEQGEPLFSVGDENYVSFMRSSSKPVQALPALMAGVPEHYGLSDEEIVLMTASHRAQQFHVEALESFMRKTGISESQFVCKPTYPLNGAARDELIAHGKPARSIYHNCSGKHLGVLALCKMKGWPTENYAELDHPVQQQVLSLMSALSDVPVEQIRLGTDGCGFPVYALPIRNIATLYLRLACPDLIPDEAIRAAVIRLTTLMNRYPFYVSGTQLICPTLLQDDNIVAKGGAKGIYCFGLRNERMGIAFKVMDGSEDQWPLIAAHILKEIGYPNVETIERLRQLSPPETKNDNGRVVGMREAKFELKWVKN

stoichiometry N [1]	Km [2] [mM]	Results (according to Eq. (2)) [3] [mmol/L]	Molecule
2	–	–	L-asparaginase from Paenibacillus thiaminolyticus (isoenzyme 1)
–	26 ± 8	32 ± 5	NC(=O)C[C@H](N)C(=O)O [L-asparagine]
